Data as given in ChEMBL document CHEMBL4673218, “Kojyl cinnamate esters are peroxisome proliferator-activated receptor α/γ dual agonists” (Bioorg Med Chem, 2018).
Blank lines part the entries; values can stand above or below the compound they belong to. Calls of active or inactive are those of the source. The calls are words filed in the database; no cut-off is given here.

Columns and labels:
[1] = Induction of adipogenesis in human AT-MSC assessed as adiponectin secretion at 30 uM in IDX medium incubated for 5 days by ELISA (reference value: 100 +/- 15 pg/ml); format: functional, Adipose tissue derived mesenchymal stem cell; settings: time 5 day
[2] = Induction of adipogenesis in human AT-MSC assessed as adiponectin secretion in IDX medium incubated for 5 days by ELISA; format: functional; settings: adipose tissue derived mesenchymal stem cell
NHEK [3] = assay: Inhibition of UVB-induced PTGS2 mRNA in human NHEK cells at 1 uM incubated for 24 hrs by qRT-PCR analysis; format: functional, cell-based
NHEK [4] = assay: Inhibition of UVB-induced MMP1 mRNA in human NHEK cells at 1 uM incubated for 24 hrs by qRT-PCR analysis; format: functional, cell-based
NHEK [5] = assay: Inhibition of UVB-induced PGE2 level in human NHEK cells at 1 uM incubated for 24 hrs by ELISA; format: functional, cell-based
NHEK [6] = assay: Inhibition of UVB-induced MMP1 level in human NHEK cells at 1 uM incubated for 24 hrs by ELISA; format: functional, cell-based
[7] = biological target: T1, PPAR alpha/gamma (Homo sapiens) (UniProt P37231+Q07869); assay: Agonist activity at PPARalpha/PPARgamma in human AT-MSC cells assessed as upregulation of FADS2 mRNA at 10 uM incubated for 3 days by qRT-PCR analysis; format: cell-based; settings: Adipose tissue derived mesenchymal stem cell, filed as agonist, time 3.0 day
NHEK [8] = assay: Inhibition of UVB-induced MMP1 mRNA in human NHEK cells at 10 uM incubated for 24 hrs by qRT-PCR analysis; format: functional, cell-based
[9] = biological target: T1, PPAR alpha/gamma (Homo sapiens); assay: Agonist activity at PPARalpha/PPARgamma in human AT-MSC cells assessed as upregulation of adiponectin mRNA at 10 uM incubated for 3 days by qRT-PCR analysis; format: cell-based; settings: Adipose tissue derived mesenchymal stem cell, filed as agonist, time 3.0 day
[10] = biological target: T1, PPAR alpha/gamma (Homo sapiens); assay: Agonist activity at PPARalpha/PPARgamma in human AT-MSC cells assessed as upregulation of SCD1 mRNA at 10 uM incubated for 3 days by qRT-PCR analysis; format: cell-based; settings: Adipose tissue derived mesenchymal stem cell, filed as agonist, time 3.0 day
NHEK [11] = assay: Inhibition of UVB-induced PGE2 level in human NHEK cells at 10 uM incubated for 24 hrs by ELISA; format: functional, cell-based
NHEK [12] = assay: Inhibition of UVB-induced PTGS2 mRNA in human NHEK cells at 10 uM incubated for 24 hrs by qRT-PCR analysis; format: functional, cell-based
[13] = biological target: T1, PPAR alpha/gamma (Homo sapiens); assay: Agonist activity at PPARalpha/PPARgamma in human AT-MSC cells assessed as upregulation of FABP4 mRNA at 10 uM incubated for 3 days by qRT-PCR analysis; format: cell-based; settings: Adipose tissue derived mesenchymal stem cell, filed as agonist, time 3.0 day
[14] = biological target: T1, PPAR alpha/gamma (Homo sapiens); assay: Agonist activity at PPARalpha/PPARgamma in human AT-MSC cells assessed as upregulation of HMGCS2 mRNA at 10 uM incubated for 3 days by qRT-PCR analysis; format: cell-based; settings: Adipose tissue derived mesenchymal stem cell, filed as agonist, time 3.0 day
[15] = biological target: T1, PPAR alpha/gamma (Homo sapiens); assay: Agonist activity at PPARalpha/PPARgamma in human NHEK cells assessed as upregulation of FASN mRNA at 10 uM incubated for 3 days by qRT-PCR analysis; format: cell-based; settings: time 3.0 day
[16] = biological target: T1, PPAR alpha/gamma (Homo sapiens); assay: Agonist activity at PPARalpha/PPARgamma in human NHEK cells assessed as upregulation of HMGCR mRNA at 10 uM incubated for 3 days by qRT-PCR analysis; format: cell-based; settings: time 3.0 day
[17] = biological target: T1, PPAR alpha/gamma (Homo sapiens); assay: Agonist activity at PPARalpha/PPARgamma in human AT-MSC cells assessed as upregulation of HMGCR mRNA at 10 uM incubated for 3 days by qRT-PCR analysis; format: cell-based; settings: Adipose tissue derived mesenchymal stem cell, filed as agonist, time 3.0 day
NHEK [18] = assay: Inhibition of UVB-induced MMP1 level in human NHEK cells at 10 uM incubated for 24 hrs by ELISA; format: functional, cell-based
[19] = biological target: T1, PPAR alpha/gamma (Homo sapiens); assay: Agonist activity at PPARalpha/PPARgamma in human AT-MSC cells assessed as upregulation of ACACB mRNA at 10 uM incubated for 3 days by qRT-PCR analysis; format: cell-based; settings: Adipose tissue derived mesenchymal stem cell, time 3.0 day
[20] = biological target: T1, PPAR alpha/gamma (Homo sapiens); assay: Agonist activity at PPARalpha/PPARgamma in human NHEK cells assessed as upregulation of ACACB mRNA at 10 uM incubated for 3 days by qRT-PCR analysis; format: cell-based; settings: time 3.0 day
[21] = biological target: T1, PPAR alpha/gamma (Homo sapiens); assay: Agonist activity at PPARalpha/PPARgamma in human AT-MSC cells assessed as upregulation of FASN mRNA at 10 uM incubated for 3 days by qRT-PCR analysis; format: cell-based; settings: Adipose tissue derived mesenchymal stem cell, time 3.0 day
[22] = system: Adipose tissue derived mesenchymal stem cell; assay: Induction of adipogenesis in human AT-MSC cells assessed as increase in lipid droplet at 30 uM in IDX medium incubated for 5 days by Oil Red O staining based inverted phase microscopy relative to IDX control; format: functional; settings: time 5.0 day
[23] = system: Adipose tissue derived mesenchymal stem cell; assay: Induction of adipogenesis in human AT-MSC cells assessed as increase in intracellular lipid accumulation at 30 uM in IDX medium incubated for 5 days by Oil Red O staining based inverted phase microscopy relative to IDX control; format: functional; settings: time 5.0 day
[24] = Induction of adipogenesis in human AT-MSC assessed as adiponectin secretion at 30 uM in IDX medium incubated for 5 days by ELISA relative to IDX control; format: functional, Adipose tissue derived mesenchymal stem cell; settings: time 5 day
[25] = biological target: T2, Peroxisome proliferator-activated receptor gamma (Homo sapiens, UniProt P37231); assay: (§1) Binding affinity to human recombinant PPARgamma by Cheng-Prusoff equation based competitive binding TR-FRET assay
T2 sequence (P37231 whole entry): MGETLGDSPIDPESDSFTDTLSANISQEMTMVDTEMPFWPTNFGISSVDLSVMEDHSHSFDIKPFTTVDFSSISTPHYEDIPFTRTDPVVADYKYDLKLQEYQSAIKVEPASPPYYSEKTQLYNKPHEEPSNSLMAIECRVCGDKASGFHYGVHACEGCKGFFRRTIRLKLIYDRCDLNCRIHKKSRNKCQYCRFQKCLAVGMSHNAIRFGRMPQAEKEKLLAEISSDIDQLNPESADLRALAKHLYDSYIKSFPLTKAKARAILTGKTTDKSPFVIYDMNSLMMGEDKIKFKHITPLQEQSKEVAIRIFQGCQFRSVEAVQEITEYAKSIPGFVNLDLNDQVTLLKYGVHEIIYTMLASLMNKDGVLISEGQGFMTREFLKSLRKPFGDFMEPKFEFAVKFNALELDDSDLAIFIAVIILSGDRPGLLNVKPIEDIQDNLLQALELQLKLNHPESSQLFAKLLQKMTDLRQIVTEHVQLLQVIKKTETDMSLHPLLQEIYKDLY

[26] = biological target: T3, Peroxisome proliferator-activated receptor gamma (Homo sapiens) (UniProt P37231); assay: as §1; settings: filed as agonist
T3 sequence (whole entry): T2 sequence (P37231 whole entry)

[27] = biological target: T1, PPAR alpha/gamma (Homo sapiens); assay: Agonist activity at PPARalpha/PPARgamma in human NHEK cells assessed as upregulation of FADS1 mRNA at 10 uM incubated for 3 days by qRT-PCR analysis; format: cell-based; settings: filed as agonist, time 3.0 day
[28] = biological target: T1, PPAR alpha/gamma (Homo sapiens); assay: Agonist activity at PPARalpha/PPARgamma in human NHEK cells assessed as upregulation of FADS2 mRNA at 10 uM incubated for 3 days by qRT-PCR analysis; format: cell-based; settings: filed as agonist, time 3.0 day
[29] = biological target: T1, PPAR alpha/gamma (Homo sapiens); assay: Agonist activity at PPARalpha/PPARgamma in human NHEK cells assessed as upregulation of HMGCS2 mRNA at 10 uM incubated for 3 days by qRT-PCR analysis; format: cell-based; settings: filed as agonist, time 3.0 day
[30] = biological target: T4, Peroxisome proliferator-activated receptor alpha (Homo sapiens, UniProt Q07869); assay: (§2) Binding affinity to human recombinant PPARalpha by Cheng-Prusoff equation based competitive binding TR-FRET assay
T4 sequence (Q07869 whole entry): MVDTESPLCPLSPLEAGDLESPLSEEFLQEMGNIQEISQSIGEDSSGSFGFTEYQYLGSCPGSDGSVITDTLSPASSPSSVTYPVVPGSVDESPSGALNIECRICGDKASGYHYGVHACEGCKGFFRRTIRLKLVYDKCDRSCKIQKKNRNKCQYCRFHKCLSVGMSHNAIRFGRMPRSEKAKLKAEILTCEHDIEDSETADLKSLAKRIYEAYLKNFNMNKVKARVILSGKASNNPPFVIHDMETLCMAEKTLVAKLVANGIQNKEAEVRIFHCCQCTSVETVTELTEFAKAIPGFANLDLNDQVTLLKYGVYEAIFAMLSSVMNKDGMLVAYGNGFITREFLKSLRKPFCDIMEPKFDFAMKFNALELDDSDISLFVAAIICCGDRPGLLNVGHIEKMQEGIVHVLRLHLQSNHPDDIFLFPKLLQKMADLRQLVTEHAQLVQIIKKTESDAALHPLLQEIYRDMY

[31] = biological target: T5, Peroxisome proliferator-activated receptor alpha (Homo sapiens) (UniProt Q07869); assay: as §2; settings: filed as agonist
T5 sequence (whole entry): T4 sequence (Q07869 whole entry)

[32] = biological target: T1, PPAR alpha/gamma (Homo sapiens); assay: Agonist activity at PPARalpha/PPARgamma in human NHEK cells assessed as upregulation of SCD1 mRNA at 10 uM incubated for 3 days by qRT-PCR analysis; format: cell-based; settings: filed as agonist, time 3.0 day
[33] = Induction of adipogenesis in human AT-MSC assessed as adiponectin secretion at 300 uM in IDX medium incubated for 5 days by ELISA (reference value: 100 +/- 15 pg/ml); format: functional, Adipose tissue derived mesenchymal stem cell; settings: time 5 day

SMILES: COc1cc(/C=C/C(=O)OCc2cc(=O)c(O)co2)cc(OC)c1OC
Activity [1]: 137 pg/mL

SMILES: O=C(/C=C/c1ccc2c(c1)OCO2)OCc1cc(=O)c(O)co1
Activity [1]: 164 pg/mL

EC50 [2]: 0.86 µM
SMILES: Cc1c(C)c2c(c(C)c1O)CCC(C)(COc1ccc(CC3SC(=O)NC3=O)cc1)O2 (configuration not stated) [TROGLITAZONE]
inhibition (NHEK [3]): inactive
inhibition (NHEK [4]): Active
inhibition (NHEK [5]): inactive
inhibition (NHEK [6]): Active

Activity [7]: Active
Activity [9]: Active
Activity [10]: Active
Activity [13]: Active
fold change (FC) [14]: 4.53
Activity [15]: inactive
Activity [16]: inactive
Activity [17]: Active
Activity [19]: inactive
Activity [20]: inactive
Activity [21]: inactive
SMILES: Cc1cccc(Nc2cc(Cl)nc(SCC(=O)O)n2)c1C
inhibition (NHEK [8]): Active
inhibition (NHEK [11]): Active
inhibition (NHEK [12]): Active
inhibition (NHEK [18]): Active

SMILES: COc1cc(OC)c(/C=C/C(=O)OCc2cc(=O)c(O)co2)c(OC)c1
Activity [1]: 87 pg/mL

SMILES: COc1ccccc1/C=C/C(=O)OCc1cc(=O)c(O)co1
EC50 [2]: 20.6 µM
Activity [22]: Active
Activity [23]: Active
fold change (FC) [24]: 2.21
Activity [1]: 221 pg/mL

SMILES: COc1cccc(/C=C/C(=O)OCc2cc(=O)c(O)co2)c1
EC50 [2]: 36.6 µM
Activity [22]: Active
Activity [23]: Active
fold change (FC) [24]: 2.65
Activity [1]: 265 pg/mL

SMILES: COc1cc(OC)c(OC)cc1/C=C/C(=O)OCc1cc(=O)c(O)co1
Activity [1]: 103 pg/mL

SMILES: COc1ccc(/C=C/C(=O)OCc2cc(=O)c(O)co2)cc1
Activity [1]: 138 pg/mL

SMILES: COc1cccc(/C=C/C(=O)OCc2cc(=O)c(O)co2)c1OC
Ki [25]: 6.7 µM
Activity [26]: Dose-dependent effect
Activity [27]: Active
EC50 [2]: 14.8 µM
Activity [7]: Active
inhibition (NHEK [8]): Active
Activity [9]: Active
Activity [22]: Active
Activity [10]: Active
inhibition (NHEK [11]): Active
Activity [28]: Active
inhibition (NHEK [12]): Active
Activity [29]: Active
Ki [30]: 8 µM
Activity [31]: Dose-dependent effect
Activity [13]: Active
Activity [14]: Active
Activity [23]: Active
Activity [15]: inactive
Activity [16]: inactive
fold change (FC) [24]: 2.81
Activity [1]: 281 pg/mL
Activity [17]: Active
inhibition (NHEK [18]): Active
Activity ([19]; filed as agonist): Active
Activity [20]: inactive
Activity ([21]; filed as agonist): Active
Activity [32]: Active

SMILES: COc1cc(/C=C/C(=O)OCc2cc(=O)c(O)co2)cc(OC)c1
Activity [1]: 67 pg/mL

SMILES: CC(=O)Oc1ccccc1C(=O)O [ASPIRIN]
Activity [33]: 197 pg/mL

SMILES: COc1ccc(/C=C/C(=O)OCc2cc(=O)c(O)co2)cc1OC
Activity [1]: 120 pg/mL

SMILES: COc1ccc(/C=C/C(=O)OCc2cc(=O)c(O)co2)c(OC)c1OC
Activity [1]: 137 pg/mL
